According to patent US20130157345A1, “STABILIZATION AND ACTIVATION OF PROTEASE FOR USE AT HIGH TEMPERATURE” (ECOLAB USA INC., priority 2011, published 2013):

Tested on: protein (gelatin) layers of photographic film
Assay: Photographic film test: removal of gelatin protein layers by enzyme in heated water
Format: biochemical
Settings: 400 ppm additive, 160-170° F
Source text: Photographic film contains a layer of a binding agent that is a protein (gelatin) which is readily attacked and removed by protease under ambient conditions. The film has multiple colored layers of the gelatin binding agent which can serve as an indication of the degree of attack if exposed to suitable enzymes. Photographic film was used in experiments to show the ability of enzymes, proteases, to attach or remove the protein layer under various conditions.
In the experiments outlined in Table 1, a beaker was charged with 5 grain tap water. An activator, “Additive 1”, was added to the beaker with the water temperature adjusted to the temperature as shown in the “Temp (F) Additive 1” column. The solution was then adjusted for the film test to the temperature as shown in “Temp (F) Enzyme” and a protease enzyme and section of photographic film added. The solution was stirred for 5 minutes and the film recovered and wiped with a paper towel for visual examination.
The additive, enzyme and then the combination of protease enzyme and additives were heated to the temperatures indicated in the applicable columns to analyze the various conditions under which the protease enzyme was able to readily attack and removed the protein (gelatin) layers of the photographic film. […]

Row | Compound | additive function as activator/stabilizer of enzymes at elevated temperatures
1 | cocoamidyl propyl butane [CAPB] | function to activate and/or stabilize enzymes
2 | O=C(O)[C@@H]1CCCN1 [proline] | function to activate and/or stabilize enzymes
